Results reported in patent publication US4335127A, “Piperidinylalkyl quinazoline compounds, composition and method of use” (Janssen Pharmaceutica, N.V., priority 1979, dated 1982).

What was measured:
[1] = tested on: Caudal Artery of the Rat (effect of serotonin); assay: Antagonistic Activity on the Effect of Serotonin on the Caudal Artery of the Rat (Test 1); settings: serotonin 40 ng/ml; 5 minutes after adding the drug; rat caudal artery strips
Protocol: Caudal arteries from fasted male rats (210-235 g) are used in the test. Two helical strips having a length of 5-6 cm and a width of 2 mm are obtained from each artery and mounted vertically in a 100 ml organ bath containing an oxygenated Krebs-Henseleit solution. Submaximal contractions of the arterial strips are produced by adding single doses of serotonin (40 ng/ml) to the organ bath for 2 minutes with each time an interval of 10 minutes. The amplitude of the contraction is measured before and 5 minutes after adding the drug. After washing out, the agonist is added again three times in order to see whether the contraction is restored and normalized. […] In this connection the ED50 -values are the minimal concentrations of the concerned drugs which reduce the amplitude of the contraction to at least 50% of its normal value.

[2] = tested on: lesions in the glandular area of the stomach and distension of the stomach induced by compound 48/80 in rats; assay: Gastric lesion test: lesions induced by compound 48/80 (Test 2); type: in vivo, rat (male, Wistar inbred strain); settings: oral, 2 hours before compound 48/80 (1 mg/kg i.v.); stomachs inspected 4 hours after
Protocol: (§1) The shock, followed by dead, can be avoided if the rats are pretreated with a classical H 1 antagonist.
(§2) Male rats of a Wistar inbred strain, weighing 220-250 g, are starved overnight, water being available ad libitum. The test compounds are administered orally as a solution or as a suspension in aqueous medium. A control rat and a "blank" rat receive the test compound. One hour later 5-[4-(diphenylmethyl)-1-piperazinylmethyl]-1-methyl-1H-benzimidazole-2-methanol is administered subcutaneously to all rats at the dose of 2.5 mg/kg. […] Five minutes after the injection the intensity of purple-blue coloration (cyanosis) of the extremities is scored as 0 (absent), +(moderate) or ++(intense). Four hours after the intravenous injection of compound 48/80 the rats are decapitated and the stomachs are removed. Subsequently the stomachs are inspected for distension and contents (blood, fluid, food) and thoroughly rinsed. The macroscopic lesions are scored from 0 to + ++, 0 corresponding to complete absence of visible lesions and the highest score corresponding to reddish rough patches covering more than half the glandular area.

[3] = tested on: cyanosis of ears and extremities induced by compound 48/80 in rats; assay: Cyanosis of ears and extremities induced by compound 48/80 (Test 2); type: in vivo, rat (male, Wistar inbred strain); settings: Rattus norvegicus, po, 5 min; read-out: Cyanosis ED50 (dose at which cyanosis of ears and extremities is completely absent in 50% of the test rats)
Protocol: as §1, §2

Cc1nc2ccccc2c(=O)n1CCN1CCC(C(=O)c2ccc(F)cc2)CC1 [3-[2-[4-(4-fluorobenzoyl)-1-piperidinyl]ethyl]-2-methyl-4(3H)-quinazolinone]
Caudal artery ED50 (minimal concentration which reduces the amplitude of the serotonin-induced contraction to at least 50% of its normal value) [1]: 0.6 ng/mL | G. lesion ED50 (dose at which distension of the stomach and lesions in the glandular area are completely absent in 50% of the test rats) [2]: 0.16 mg/kg | ED50 [3]: 0.16 mg/kg

O=C(c1ccc(F)cc1)C1CCN(CCCn2c(=S)[nH]c3ccccc3c2=O)CC1 [3-[3-[4-(4-fluorobenzoyl)-1-piperidinyl]propyl]-2,3-dihydro-2-thioxo-4(1H)-quinazolinone]
Caudal artery ED50 (minimal concentration which reduces the amplitude of the serotonin-induced contraction to at least 50% of its normal value) [1]: 2 ng/mL | G. lesion ED50 (dose at which distension of the stomach and lesions in the glandular area are completely absent in 50% of the test rats) [2]: 2.5 mg/kg | ED50 [3]: 0.63 mg/kg

O=C(c1ccc(Cl)cc1)C1CCN(CCn2c(=O)[nH]c3ccccc3c2=O)CC1
Caudal artery ED50 (minimal concentration which reduces the amplitude of the serotonin-induced contraction to at least 50% of its normal value) [1]: 2.5 ng/mL

O=C(c1ccc(F)cc1)C1CCN(CCn2c(=O)[nH]c3cc(Cl)ccc3c2=O)CC1
Caudal artery ED50 (minimal concentration which reduces the amplitude of the serotonin-induced contraction to at least 50% of its normal value) [1]: 2 ng/mL | G. lesion ED50 (dose at which distension of the stomach and lesions in the glandular area are completely absent in 50% of the test rats) [2]: 1.25 mg/kg | ED50 [3]: 1.25 mg/kg

O=C(c1ccc(F)cc1)C1CCN(CCN2C(=O)Nc3ccc(Cl)cc3C2c2ccccc2)CC1 (stereo not drawn) [6-chloro-3-[2-[4-(4-fluorobenzoyl)-1-piperidinyl]ethyl]-3,4-dihydro-4-phenyl-2(1H)-quinazolinone]
G. lesion ED50 (dose at which distension of the stomach and lesions in the glandular area are completely absent in 50% of the test rats) [2]: 0.63 mg/kg | ED50 [3]: 0.63 mg/kg

COc1ccc2c(=O)n(CCN3CCC(C(=O)c4ccc(F)cc4)CC3)c(=O)[nH]c2c1 [3-[2-[4-(4-fluorobenzoyl)-1-piperidinyl]ethyl]-7-methoxy-2,4(1H,3H)-quinazolinedione]
Caudal artery ED50 (minimal concentration which reduces the amplitude of the serotonin-induced contraction to at least 50% of its normal value) [1]: 0.7 ng/mL | G. lesion ED50 (dose at which distension of the stomach and lesions in the glandular area are completely absent in 50% of the test rats) [2]: 0.31 mg/kg | ED50 [3]: 0.16 mg/kg

O=c1[nH]c2ccccc2c(=O)n1CCN1CCC(C(O)c2ccc(F)cc2)CC1 (stereo not drawn) [3-[2-[4-[(4-fluorophenyl)hydroxymethyl]-1-piperidinyl]ethyl]-2,4(1H,3H)-quinazolinedione]
Caudal artery ED50 (minimal concentration which reduces the amplitude of the serotonin-induced contraction to at least 50% of its normal value) [1]: 20 ng/mL | G. lesion ED50 (dose at which distension of the stomach and lesions in the glandular area are completely absent in 50% of the test rats) [2]: 1.25 mg/kg | ED50 [3]: 1.25 mg/kg

O=C(O)/C=C/C(=O)O.O=C(c1ccc(F)cc1)C1CCN(CCCn2cnc3ccccc3c2=O)CC1 [3-[3-[4-(4-fluorobenzoyl)-1-piperidinyl]propyl]-4(3H)-quinazolinone (E)-2-butenedioate (1:1)]
Caudal artery ED50 (minimal concentration which reduces the amplitude of the serotonin-induced contraction to at least 50% of its normal value) [1]: 5 ng/mL | G. lesion ED50 (dose at which distension of the stomach and lesions in the glandular area are completely absent in 50% of the test rats) [2]: 2.5 mg/kg

COc1ccc(C(=O)C2CCN(CCn3c(=O)[nH]c4ccccc4c3=O)CC2)cc1
Caudal artery ED50 (minimal concentration which reduces the amplitude of the serotonin-induced contraction to at least 50% of its normal value) [1]: 2.5 ng/mL

Nc1cc(F)ccc1C(=O)C1CCN(CCn2c(=O)[nH]c3ccccc3c2=O)CC1 [3-[2-[4-(2-amino-4-fluorobenzoyl)-1-piperidinyl]ethyl]-2,4(1H,3H)-quinazolinedione]
Caudal artery ED50 (minimal concentration which reduces the amplitude of the serotonin-induced contraction to at least 50% of its normal value) [1]: 0.6 ng/mL | G. lesion ED50 (dose at which distension of the stomach and lesions in the glandular area are completely absent in 50% of the test rats) [2]: 1.25 mg/kg | ED50 [3]: 0.16 mg/kg

O=C(c1ccc(F)cc1)C1CCN(CCn2c(=O)[nH]c3cc(F)ccc3c2=O)CC1 [7-fluoro-3-[2-[4-(4-fluorobenzoyl)-1-piperidinyl]ethyl]-2,4(1H,3H)-quinazolinedione]
Caudal artery ED50 (minimal concentration which reduces the amplitude of the serotonin-induced contraction to at least 50% of its normal value) [1]: 0.7 ng/mL | G. lesion ED50 (dose at which distension of the stomach and lesions in the glandular area are completely absent in 50% of the test rats) [2]: 1.25 mg/kg | ED50 [3]: 0.16 mg/kg

O=C(O)/C=C/C(=O)O.O=C(c1ccc(F)cc1)C1CCN(CCCN2CNc3ccccc3C2=O)CC1 [3-[3-[4-(4-fluorobenzoyl)-1-piperidinyl]propyl]-2,3-dihydro-4-(1H)-quinazolinone (E)-2-butenedioate (1:1)]
Caudal artery ED50 (minimal concentration which reduces the amplitude of the serotonin-induced contraction to at least 50% of its normal value) [1]: 10 ng/mL | G. lesion ED50 (dose at which distension of the stomach and lesions in the glandular area are completely absent in 50% of the test rats) [2]: ≥ 2.5 mg/kg

O=c1[nH]c2ccccc2c(=O)n1CCN1CCC(C2(c3ccc(F)cc3)OCCO2)CC1
Caudal artery ED50 (minimal concentration which reduces the amplitude of the serotonin-induced contraction to at least 50% of its normal value) [1]: 11 ng/mL | G. lesion ED50 (dose at which distension of the stomach and lesions in the glandular area are completely absent in 50% of the test rats) [2]: 0.31 mg/kg | ED50 [3]: 0.16 mg/kg

O=C(c1ccc(F)cc1)C1CCN(CCn2cnc3ccccc3c2=O)CC1 [3-[2-[4-(4-fluorobenzoyl)-1-piperidinyl]ethyl]-4(3H)-quinazolinone]
Caudal artery ED50 (minimal concentration which reduces the amplitude of the serotonin-induced contraction to at least 50% of its normal value) [1]: 0.6 ng/mL | G. lesion ED50 (dose at which distension of the stomach and lesions in the glandular area are completely absent in 50% of the test rats) [2]: 0.31 mg/kg | ED50 [3]: 0.31 mg/kg

Cn1c(=O)n(CCN2CCC(C(=O)c3ccc(F)cc3)CC2)c(=O)c2ccccc21
Caudal artery ED50 (minimal concentration which reduces the amplitude of the serotonin-induced contraction to at least 50% of its normal value) [1]: 0.7 ng/mL | G. lesion ED50 (dose at which distension of the stomach and lesions in the glandular area are completely absent in 50% of the test rats) [2]: 1.25 mg/kg | ED50 [3]: 0.16 mg/kg

O=C1NC(CCN2CCC(C(=O)c3ccc(F)cc3)CC2)Nc2ccccc21 (stereo not drawn) [2-[2-[4-(4-fluorobenzoyl)-1-piperidinyl]ethyl]-2,3-dihydro-4(1H)-quinazolinone]
Caudal artery ED50 (minimal concentration which reduces the amplitude of the serotonin-induced contraction to at least 50% of its normal value) [1]: 0.7 ng/mL | G. lesion ED50 (dose at which distension of the stomach and lesions in the glandular area are completely absent in 50% of the test rats) [2]: 2.5 mg/kg | ED50 [3]: 1.25 mg/kg

Cc1ccc2[nH]c(=O)n(CCN3CCC(C(=O)c4ccc(F)cc4)CC3)c(=O)c2c1
Caudal artery ED50 (minimal concentration which reduces the amplitude of the serotonin-induced contraction to at least 50% of its normal value) [1]: 1.3 ng/mL | G. lesion ED50 (dose at which distension of the stomach and lesions in the glandular area are completely absent in 50% of the test rats) [2]: 2.5 mg/kg | ED50 [3]: 0.63 mg/kg

O=C(c1ccc(F)cc1)C1CCN(CCCn2c(=O)[nH]c3ccccc3c2=O)CC1
Caudal artery ED50 (minimal concentration which reduces the amplitude of the serotonin-induced contraction to at least 50% of its normal value) [1]: 1.25 ng/mL | G. lesion ED50 (dose at which distension of the stomach and lesions in the glandular area are completely absent in 50% of the test rats) [2]: 2.5 mg/kg

O=C(c1ccc(F)cc1)C1CCN(CCn2c(=O)[nH]c3ccccc3c2=O)CC1 [3-[2-[4-(4-fluorobenzoyl)-1-piperidinyl]ethyl]-2,4-(1H,3H)-quinazolinedione]
Caudal artery ED50 (minimal concentration which reduces the amplitude of the serotonin-induced contraction to at least 50% of its normal value) [1]: 0.7 ng/mL | G. lesion ED50 (dose at which distension of the stomach and lesions in the glandular area are completely absent in 50% of the test rats) [2]: 0.16 mg/kg | ED50 [3]: 0.08 mg/kg

O=C(c1ccc(F)cc1)C1CCN(CCn2c(=S)[nH]c3ccccc3c2=O)CC1 [3-[2-[4-(4-fluorobenzoyl)-1-piperidinyl]ethyl]-2,3-dihydro-2-thioxo-4(1H)-quinazolinone]
Caudal artery ED50 (minimal concentration which reduces the amplitude of the serotonin-induced contraction to at least 50% of its normal value) [1]: 0.6 ng/mL | G. lesion ED50 (dose at which distension of the stomach and lesions in the glandular area are completely absent in 50% of the test rats) [2]: 0.08 mg/kg | ED50 [3]: 0.04 mg/kg

O=C(c1ccc(F)cc1)C1CCN(CCN2CNc3ccccc3C2=O)CC1 [3-[2-[4-(4-fluorobenzoyl)-1-piperidinyl]ethyl]-2,3-dihydro-4(1H)-quinazolinone]
Caudal artery ED50 (minimal concentration which reduces the amplitude of the serotonin-induced contraction to at least 50% of its normal value) [1]: 5 ng/mL | G. lesion ED50 (dose at which distension of the stomach and lesions in the glandular area are completely absent in 50% of the test rats) [2]: ≥ 2.5 mg/kg
